Laboratory results taken from patent US20160159814A1, “GLYCINE TRANSPORTER INHIBITOR” (TAISHO PHARMACEUTICAL CO., LTD., priority 2013, published 2016).

Each molecule was assayed against T1, human type 1 glycine transporter (GlyT1) (Homo sapiens, UniProt P48067) (assay: Glycine uptake inhibition experiment ([3H] glycine uptake in T98G cells expressing GlyT1)). Conditions: not given.
T1 construct: T98G cells (glioma cells) expressing human type 1 glycine transporter (GlyT1) were used; endogenous in cells; host or cells: T98G cells (human glioma cells)
T1 sequence (P48067 1-706): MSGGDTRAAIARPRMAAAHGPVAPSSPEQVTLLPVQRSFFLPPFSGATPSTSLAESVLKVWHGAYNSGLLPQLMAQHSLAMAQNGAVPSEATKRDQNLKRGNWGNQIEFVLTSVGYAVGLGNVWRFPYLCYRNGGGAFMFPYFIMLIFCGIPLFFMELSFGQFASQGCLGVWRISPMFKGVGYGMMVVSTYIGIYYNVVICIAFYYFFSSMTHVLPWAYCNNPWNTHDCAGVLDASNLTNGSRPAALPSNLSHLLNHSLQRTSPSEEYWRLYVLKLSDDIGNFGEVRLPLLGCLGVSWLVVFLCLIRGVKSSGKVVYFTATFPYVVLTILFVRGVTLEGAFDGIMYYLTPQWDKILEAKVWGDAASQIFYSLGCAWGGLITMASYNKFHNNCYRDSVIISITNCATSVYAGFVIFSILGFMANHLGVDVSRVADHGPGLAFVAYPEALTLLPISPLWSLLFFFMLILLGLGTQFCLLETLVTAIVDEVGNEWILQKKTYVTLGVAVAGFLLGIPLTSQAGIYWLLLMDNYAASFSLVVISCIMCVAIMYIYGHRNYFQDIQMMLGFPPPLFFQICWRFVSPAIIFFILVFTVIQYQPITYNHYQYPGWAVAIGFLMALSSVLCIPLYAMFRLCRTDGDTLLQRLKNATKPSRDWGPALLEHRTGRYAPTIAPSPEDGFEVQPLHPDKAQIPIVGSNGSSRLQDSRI
Format: cell-based
Method in brief: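 T98G glioma cells expressing human GlyT1 were pretreated 10 min with compound in HEPES buffer pH 7.4 (0.2% BSA), then incubated with compound plus 250 nM final [3H]glycine for 15 min at room temperature. Intracellular radioactivity was counted after NaOH lysis; 10 μM ALX5407 defined non-specific uptake. IC50 came from 10^−9–10^−5 M curves.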

In order of falling IC50:
1. COc1ccncc1CN1C(=O)C(F)(F)c2c([C@H](C)O)cccc21 [Compound 209, 3,3-difluoro-4-[(1S)-1-hydroxyethyl]-1-[(4-methoxypyridin-3-yl)methyl]-1,3-dihydro-2H-indol-2-one]  2.8 µM
2. C[C@H](O)c1cccc2c1C(F)(F)C(=O)N2Cc1ccc(C#N)nc1 [Compound 201, 5-({3,3-difluoro-4-[(1S)-1-hydroxyethyl]-2-oxo-2,3-dihydro-1-indol-1-yl}methyl)pyridine-2-carbonitrile]  0.83 µM
3. O=C1N(Cc2cncc(C3CC3)c2)c2cccc(C(O)C(F)F)c2C1(F)F (single isomer, unassigned) [Compound 179, 1-[(5-cyclopropylpyridin-3-yl)methyl]-4-(2,2-difluoro-1-hydroxyethyl)-3,3-difluoro-1,3-dihydro-2H-indol-2-one]  0.48 µM
4. C[C@H](O)c1cccc2c1C(F)(F)C(=O)N2Cc1ncccc1C(F)(F)F [Compound 227, 3,3-difluoro-4-[(1S)-1-hydroxyethyl]-1 {[3-(trifluoromethyl)pyridin-2-yl]methyl)-1,3-dihydro-2H-indol-2-one]  0.38 µM
5. O=C1N(Cc2nc3cc(F)ccc3o2)c2cccc(C(O)C(F)F)c2C1(F)F (single isomer, unassigned) [Compound 171, 4-(2,2-difluoro-1-hydroxyethyl)-3,3-difluoro-1-[(5-fluoro-1,3-benzoxazol-2-yl)methyl]-1,3-dihydro-2H-indol-2-one]  0.17 µM
6. C[C@H](O)c1cccc2c1C(F)(F)C(=O)N2Cc1ccc(C2CC2)nc1 [Compound 198, 1-[(6-cyclopropylpyridin-3-yl)methyl]-3,3-difluoro-4-[(1S)-1-hydroxyethyl]-1,3-dihydro-2H-indol-2-one]  0.16 µM
7. O=C1N(Cc2ccnc(C3CC3)c2)c2cccc(C(O)C(F)F)c2C1(F)F (single isomer, unassigned) [Compound 180, 1-[(2-cyclopropylpyridin-4-yl)methyl]-4-(2,2-difluoro-1-hydroxyethyl)-3,3-difluoro-1,3-dihydro-2H-indol-2-one]  0.053 µM
8. C[C@H](O)c1cccc2c1C(F)(F)C(=O)N2Cc1ncc(C(F)(F)F)cc1Cl [Compound 221, 1-{[3-chloro-5-(trifluoromethyl)pyridin-2-yl]methyl)-3,3-difluoro-4-[(1S)-1-hydroxyethyl]-1,3-dihydro-2H-indol-2-one]  0.033 µM
9. C[C@H](O)c1cccc2c1C(F)(F)C(=O)N2Cc1cccc(C#N)n1 [Compound 177, 6-({3,3-difluoro-4-[(1S)-1-hydroxyethyl]-2-oxo-2,3-dihydro-1H-indol-1-yl}methyl)pyridine-2-carbonitrile]  0.024 µM

Same assay, conditions: glycine uptake inhibition

In order of falling IC50:
1. C[C@H](O)c1cccc2c1C(F)(F)C(=O)N2Cc1cccnc1 [Compound 61, 3,3-difluoro-4-[(1S)-1-hydroxyethyl]-1-(pyridin-3-ylmethyl)-1,3-dihydro-2H-indol-2-one]  0.42 µM
2. O=C1N(Cc2ccnc(-n3nccn3)c2)c2cccc(C(O)C(F)F)c2C1(F)F (single isomer, unassigned) [Compound 147, 4-(2,2-difluoro-1-hydroxyethyl)-3,3-difluoro-1-{[2-(2H-1,2,3-triazol-2-yl)pyridin-4-yl]methyl}-1,3-dihydro-2H-indol-2-one]  0.36 µM
3. C[C@H](O)c1cccc2c1C(F)(F)C(=O)N2Cc1n[nH]c2ccccc12 [Compound 89, 3,3-difluoro-4-[(1S)-1-hydroxyethyl]-1-(1H-indazol-3-ylmethyl)-1,3-dihydro-2H-indol-2-one]  0.19 µM
4. C[C@H](O)c1c(Cl)ccc2c1C(F)(F)C(=O)N2Cc1ccnc(C#N)c1 [Compound 107, 4-({5-chloro-3,3-difluoro-4-[(1S)-1-hydroxyethyl]-2-oxo-2,3-dihydro-1H-indol-1-yl}methyl)pyridine-2-carbonitrile]  0.15 µM
5. C[C@H](O)c1cccc2c1C(F)(F)C(=O)N2Cc1nc2ccccc2[nH]1 [Compound 88, 1-(1H-benzimidazol-2-ylmethyl)-3,3-difluoro-4-[(1S)-1-hydroxyethyl)-1,3-dihydro-2H-indol-2-one]  0.087 µM
6. C[C@H](O)c1cccc2c1C(F)(F)C(=O)N2Cc1noc2ccccc12 [Compound 119, 1-(1,2-benzoxazol-3-ylmethyl)-3,3-difluoro-4-[(1S)-1-hydroxyethyl]-1,3-dihydro-2H-indol-2-one]  0.077 µM
7. O=C1N(Cc2cncc(Cl)c2)c2cccc(C(O)C(F)(F)F)c2C1(F)F (stereo not drawn) [Compound 17, 1-[(5-chloropyridin-3-yl)methyl]-3,3-difluoro-4-(2,2,2-trifluoro-1-hydroxyethyl)-1,3-dihydro-2H-indol-2-one]  0.072 µM
8. O=C1N(Cc2cc3ccccc3c(=O)[nH]2)c2cccc([C@@H](O)C(F)(F)F)c2C1(F)F [Compound 138, 3-({3,3-difluoro-2-oxo-4-[(1R)-2,2,2-trifluoro-1-hydroxyethyl]-2,3-dihydro-1H-indol-1-yl}methyl) isoquinolin-1(2H)-one]  0.058 µM
9. O=C1N(Cc2cnc3ccccc3c2)c2cccc(C(O)C(F)F)c2C1(F)F (single isomer, unassigned) [Compound 143, 4-(2,2-difluoro-1-hydroxyethyl)-3,3-difluoro-1-(quinolin-3-ylmethyl)-1,3-dihydro-2H-indol-2-one]  0.048 µM
10. C[C@H](O)c1c(Cl)ccc2c1C(F)(F)C(=O)N2Cc1cncc(Cl)c1 [Compound 90, 5-chloro-1-[(5-chloropyridin-3-yl)methyl]-3,3-difluoro-4-[(1S)-1-hydroxyethyl]-1,3-dihydro-2H-indol-2-one]  0.046 µM
11. C[C@H](O)c1cccc2c1C(F)(F)C(=O)N2Cc1cccc(C(F)F)n1 [Compound 82, 1-{[6-(difluoromethyl)pyridin-2-yl]methyl}-3,3-difluoro-4-[(1S)-1-hydroxyethyl]-1,3-dihydro-2H-indol-2-one]  0.044 µM
12. C[C@H](O)c1cccc2c1C(F)(F)C(=O)N2Cc1cncc(-n2nccn2)c1 [Compound 84, 3,3-difluoro-4-[(1S)-1-hydroxyethyl]-1-{[5-(2H-1,2,3-triazol-2-yl)pyridin-3-yl]methyl}-1,3-dihydro-2H-indol-2-one]  0.035 µM
13. C[C@H](O)c1cccc2c1C(F)(F)C(=O)N2Cc1cc2ccccc2c(=O)n1C [Compound 100, 3-({3,3-difluoro-4-[(1S)-1-hydroxyethyl]-2-oxo-2,3-dihydro-1H-indol-1-yl}methyl)-2-methylisoquinolin-1(2H)-one]  0.029 µM
14. C[C@H](O)c1cccc2c1C(F)(F)C(=O)N2Cc1ccc(C(F)(F)F)nc1 [Compound 118, 3,3-difluoro-4-[(1S)-1-hydroxyethyl]-1-{[6-(trifluoromethyl)pyridin-3-yl]methyl}-1,3-dihydro-2H-indol-2-one]  0.027 µM
15. O=C1N(Cc2cccc(Cl)n2)c2cccc(C(O)C(F)(F)F)c2C1(F)F (single isomer, unassigned) [Compound 9, 1-[(6-chloropyridin-2-yl)methyl]-3,3-difluoro-4-(2,2,2-trifluoro-1-hydroxyethyl)-1,3-dihydro-2H-indol-2-one]  0.017 µM
16. CC(O)c1cccc2c1C(F)(F)C(=O)N2Cc1cccc(Cl)n1 (stereo not drawn) [Compound 1, 1-[(6-chloropyridin-2-yl)methyl]-3,8-difluoro-4-(1-hydroxyethyl)-1,3-dihydro-2H-indol-2-one]  0.015 µM
17. COc1cc(CN2C(=O)C(F)(F)c3c([C@H](C)O)cccc32)ccn1 [Compound 124, 3,3-difluoro-4-[(1S)-1-hydroxyethyl]-1-[(2-methoxypyridin-4-yl)methyl]-1,3-dihydro-2H-indol-2-one]  0.012 µM
18. C[C@H](O)c1cccc2c1C(F)(F)C(=O)N2Cc1ccc2nonc2c1 [Compound 76, 1-(2,1,3-benzoxadiazol-5-ylmethyl)-3,3-difluoro-4-[(1S)-1-hydroxyethyl]-1,3-dihydro-2H-indol-2-one]  0.0087 µM
19. C[C@H](O)c1cccc2c1C(F)(F)C(=O)N2Cc1ccc(C(F)(F)F)o1 [Compound 94, 3,3-difluoro-4-[(1S)-1-hydroxyethyl]-1-{[5-(trifluoromethyl)furan-2-yl]methyl}-1,3-dihydro-2H-indol-2-one]  0.006 µM

Same assay, conditions: table section whose head prints (μm)

In order of falling IC50:
1. N#Cc1cccnc1CN1C(=O)C(F)(F)c2c(C(O)C(F)F)cccc21 (single isomer, unassigned) [Compound 259, 2-{[4-(2,2-difluoro-1-hydroxyethyl)-3,3-difluoro-2-oxo-2,3-dihydro-1H-indol-1-yl]methyl}pyridine-3-carbonitrile]  1.9 µM
2. O=C1N(Cc2cncc(OC(F)F)c2)c2cccc(C(O)C(F)F)c2C1(F)F (single isomer, unassigned) [Compound 258, 4-(2,2-difluoro-1-hydroxyethyl)-1-{[5-(difluoromethoxy)pyridin-3-yl]methyl}-3,3-difluoro-1,3-dihydro-2H-indol-2-one]  0.12 µM
